In US7829560B2, “1,4-disubstituted naphthalenes as inhibitors of P38 MAP kinase” (Arqule, Inc., priority 2004, dated 2010):
pIC50: −log10 of the molar value.

Legend:
p38α = target: T1, p38α (Homo sapiens, UniProt Q16539); test: p38 MAP Kinase assay: inhibition of ATF2 phosphorylation, ELISA; format: biochemical; details: for pIC50: ATF2 phosphorylation, read-out: [ENZ] P38 ALPHA, IC50, ELISA; for inhibition at 10 µM: substrate ATF2, read-out: [ENZ] P38 ALPHA, PCT INH, ELISA (10 uM;ATF2) (Percent)
T1 construct: p38 MAP Kinases are recombinant human full-length proteins with an amino-terminal GST fusion; GST (N); purchased Upstate Biotechnology Inc; host or cells: E. coli
T1 sequence (Q16539 whole entry, the tested form may be a part): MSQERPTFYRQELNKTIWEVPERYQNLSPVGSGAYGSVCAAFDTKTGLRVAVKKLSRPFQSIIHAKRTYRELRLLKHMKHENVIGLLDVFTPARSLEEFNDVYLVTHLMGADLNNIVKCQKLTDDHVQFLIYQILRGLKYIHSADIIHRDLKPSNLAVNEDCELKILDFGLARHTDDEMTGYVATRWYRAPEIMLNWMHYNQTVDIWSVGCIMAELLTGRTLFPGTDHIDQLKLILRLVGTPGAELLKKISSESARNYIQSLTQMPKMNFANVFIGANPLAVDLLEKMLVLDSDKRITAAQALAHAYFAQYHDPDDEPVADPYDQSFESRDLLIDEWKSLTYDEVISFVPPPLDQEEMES
Outline: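 In vitro phosphorylation of ATF2 at Thr69 by recombinant human GST-p38 MAP kinase, read by anti-phospho-ATF2 ELISA at 450 nm. Enzyme and compound pre-incubated 15 min at RT, then 30 min reaction at 37 °C with 40 μM ATP and 1.25 μM ATF2; buffer with or without 1% HSA (Method II or I).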

[1] = system: TNFα release from THP-1 cells; test: Inhibition of TNFα release from LPS-stimulated THP-1 cells, ELISA; format: cell-based; details: Homo sapiens, THP-1, THP-1 cells, read-out: [CELL] THP-1, IC50, TNF ALPHA, ELISA
Description: Compounds of the invention are screened for the ability to inhibit TNFα and IL-1β release from THP-1 cells stimulated with lipopolysaccharide (LPS) in vitro. The ability of compounds to inhibit TNFα and IL-1β release in this in vitro assay is correlated with the inhibition of p38 activity and TNFα and IL-1β expression in vivo, and is therefore an indicator of potential in vivo therapeutic activity (Lee J. C. et al, Ann. N.Y. Acad. Sci. 696: 149-170, 1993 and Nature, 372: 739-746, 1994).
Materials: THP-1 cells from ATCC (TIB202) are maintained at 37° C., 5% CO2 in RPMI 1640 media (available from MediaTech, Herndon, Va.) containing 4.5 g/L glucose, supplemented with 10% fetal bovine serum, 1% penicillin/streptomycin and 50 μM β-mercaptoethanol.
Methods: Test compounds are initially dissolved in RPMI media with 1% DMSO (v/v). Compounds are then serially diluted in RPMI media for all subsequent dilutions. The assay is performed under sterile conditions. THP-1 cells at a culture density of 6-8×10^5 cells/ml are collected and resuspended in the RPMI media at 10^6 cells/ml containing 10% fetal bovine serum, no serum or 1% human serum albumin (HSA). 100 μl of resuspended cells are added to each well, which contain 100 μl of a test compound. Test compounds are prepared at twice the final concentration. Final DMSO concentration is no more than 0.5% (v/v). Cells are preincubated with compound for 30 minutes at 37° C., 5% CO2 prior to stimulation with lipopolysaccharide (LPS) (Sigma L-2880, 4 mg/ml stock in PBS). The final LPS concentration in each well is 10 or 30 μg/ml for TNFα and IL-1β release, respectively. Unstimulated control cell suspensions receive PBS vehicle only. Cell mixtures are incubated for 18 or 48 hours for TNFα and IL-1β prelease, respectively. 150 μl of supernatants are taken and transferred to a fresh plate and stored at −20° C. until further analysis. TNFα and IL-1β levels are measured using ELISA kits from Biosource (Catalog no. KHC3012 for TNFα; KAC1192 for IL-1β). A SpectraMAX 250 is used as the plate reader. Analysis is performed by non-linear regression to generate a dose response curve. The calculated IC50 value is the concentration of the test compound that causes a 50% decrease in TNFα or IL-1β levels.

SMILES | pIC50 (p38α) | pIC50 [1] | inhibition at 10 µM (p38α) [%]
CCN1CCC[C@H]1CNc1nccc(Oc2ccc(NC(=O)c3cc(F)cc(N4CCCCC4)c3)c3ccccc23)n1 [Compound B419, N-(4-{[2-({[(2S)-1-Ethylpyrrolidin-2-yl]methyl}amino)pyrimidin-4-yl]oxy}-1-naphthyl)-3-fluoro-5-piperidin-1-ylbenzamide] | 8.52 | 7.26 | –
Cc1ccc(C(=O)Nc2ccc(OCCN3CCOCC3)c3ccccc23)cc1Br [Compound B37] | < 4.00 | < 5.00 | –
Cc1cccc(-c2cccc(C(=O)Nc3ccc(OCCN4CCOCC4)c4ccccc34)c2)c1C [Compound B296] | 5.73 | 5.06 | –
O=C(Nc1ccc(OCCCN2CCC(O)CC2)c2ccccc12)c1cc(F)cc(N2CCCCC2)c1 [Compound B162, 3-Fluoro-N-{4-[3-(4-hydroxy-piperidin-1-yl)-propoxy]-naphthalen-1-yl}-5-piperidin-1-yl-benzamide] | 5.00 | < 5.00 | 59.5
O=C(Nc1ccc(OCCN2CCOCC2)c2ccccc12)c1cc(F)cc(N2Cc3ccccc3C2)c1 [Compound B212] | < 5.00 | < 5.00 | –
O=C(Nc1ccc(OCCN2CCOCC2)c2ccccc12)c1cnc(N2CCOCC2)c2ccccc12 [Compound B28] | < 4.00 | < 5.00 | –
O=C(Nc1ccc(OCCN2CCOCC2)c2ccccc12)c1cc(F)cc(N2CCOCC2)c1 [Compound B206, 3-Fluoro-5-morpholin-4-yl-N-[4-(2-morpholin-4-ylethoxy)-1-naphthyl]benzamide] | 5.99 | 5.37 | –
O=C(Nc1ccc(OCCN2CCOCC2)c2ccccc12)c1cc(F)cc(F)c1 [Compound B204] | < 5.00 | < 5.00 | –
CN(C)c1ccccc1C(=O)Nc1ccc(OCCN2CCOCC2)c2ccccc12 [Compound B35] | < 4.00 | < 5.00 | –
O=C(Nc1ccc(OCCN2CCOCC2)c2ccccc12)c1cccc(-c2ccc3c(c2)OCO3)c1 [Compound B273] | < 5.00 | < 5.00 | –
Cc1nc(C(=O)Nc2ccc(OCCN3CCOCC3)c3ccccc23)cc(N2CCOCC2)n1 [Compound B46] | < 5.00 | 6.16 | –
Cc1ccc(C(=O)Nc2ccc(OCCN3CCOCC3)c3ccccc23)cc1N1CCOCC1 [Compound B40, 4-Methyl-3-morpholin-4-yl-N-[4-(2-morpholin-4-yl-ethoxy)-naphthalen-1-yl]-benzamide] | 5.60 | < 5.00 | –
CC(C)(C)CNc1cc(F)cc(C(=O)Nc2ccc(OCCN3CCOCC3)c3ccccc23)c1 [Compound B209, 3-[(2,2-Dimethylpropyl)amino]-5-fluoro-N-[4-(2-morpholin-4-ylethoxy)-1-naphthyl]benzamide] | 6.29 | < 5.00 | –
Cc1cccc(C(=O)Nc2ccc(OCCN3CCOCC3)c3ccccc23)c1 [Compound B56] | < 5.00 | < 5.00 | –
CC1CCC(Oc2cc(F)cc(C(=O)Nc3ccc(OCCN4CCOCC4)c4ccccc34)c2)CC1 (centres unmarked) [Compound B234, 3-Fluoro-5-[(4-methylcyclohexyl)oxy]-N-[4-(2-morpholin-4-ylethoxy)-1-naphthyl]benzamide] | 5.98 | 5.50 | –
Cc1ccc(-c2cccc(C(=O)Nc3ccc(OCCN4CCOCC4)c4ccccc34)c2)cc1C [Compound B276] | < 5.00 | < 5.00 | –
O=C(Nc1ccc(OCCN2CCOCC2)c2ccccc12)c1cccc(-c2cc(Cl)ccc2Cl)c1 [Compound B295] | 5.30 | 5.55 | –
CC(=O)Nc1cccc(C(=O)Nc2ccc(OCCN3CCOCC3)c3ccccc23)c1 [Compound B32] | 5.13 | < 5.00 | –
O=C(Nc1ccc(OCCN2CCOCC2)c2ccccc12)c1cccc(-c2ccc(Cl)c(Cl)c2)c1 [Compound B283] | < 5.00 | < 5.00 | –

SMILES | pIC50 (p38α) | pIC50 [1] | inhibition at 10 µM (p38α) [%]
O=C(Nc1ccc(OCCN2CCOCC2)c2ccccc12)c1ccc2ccccc2c1 [Compound B85] | 5.50 | 5.39 | 66
CC1CCN(c2cc(F)cc(C(=O)Nc3ccc(Oc4ccnc(NC5CCCC5)n4)c4ccccc34)c2)CC1 [Compound B266, N-(4-{[2-(Cyclopentylamino)pyrimidin-4-yl]oxy}-1-naphthyl)-3-fluoro-5-(4-methylpiperidin-1-yl)benzamide] | 6.44 | 6.59 | –
O=C(Nc1ccc(OCCN2CCSCC2)c2ccccc12)c1cccc(N2CCOCC2)c1 [Compound B20] | 5.26 | < 5.00 | 73.5
COc1ccc(-c2cccc(C(=O)Nc3ccc(OCCN4CCOCC4)c4ccccc34)c2)cc1 [Compound B284] | < 5.00 | < 5.00 | –
O=C(Nc1ccc(Oc2ccnc(NC[C@@H]3CCCO3)n2)c2ccccc12)c1cc(F)cc(N2CCOCC2)c1 [Compound B358] | 8.49 | 8.02 | –
Cc1cccc(C(=O)Nc2ccc(OCCN3CCOCC3)c3ccccc23)c1Cl [Compound B82] | – | 4.97 | 41.3
O=C(Nc1ccc(Oc2ccnc(NC3CCCC3)n2)c2ccccc12)c1cc(F)cc(N2CCOCC2)c1 [Compound B250, N-(4-{[2-(Cyclopentylamino)pyrimidin-4-yl]oxy}-1-naphthyl)-3-fluoro-5-morpholin-4-ylbenzamide] | 7.52 | 7.38 | –
O=C(Nc1ccc(OCCN2CCOCC2)c2ccccc12)c1cccc(-c2ccccc2Cl)c1 [Compound B101] | 6.06 | 5.69 | 87
CCOC(=O)N1CCC(Nc2nccc(Oc3ccc(NC(=O)c4cc(F)cc(N5CCCCC5)c4)c4ccccc34)n2)CC1 [Compound B401, Ethyl-4-{[4-({4-[(3-fluoro-5-piperidin-1-ylbenzoyl)amino]-1-naphthyl}oxy)pyrimidin-2-yl]amino}piperidine-1-carboxylate] | 7.59 | 5.96 | –
CC1CCCN1c1cc(C(=O)Nc2ccc(OCCN3CCOCC3)c3ccccc23)ccn1 (centres unmarked) [Compound B130, 2-(2-Methyl-pyrrolidin-1-yl)-N-[4-(2-morpholin-4-yl-ethoxy)-naphthalen-1-yl]-isonicotinamide] | 6.09 | 5.63 | 88.5
CC(C)(C)OC(=O)Nc1cccc(C(=O)Nc2ccc(OCCN3CCOCC3)c3ccccc23)c1 [Compound B63] | < 5.00 | < 5.00 | –
O=C(Nc1ccc(OCCN2CCOCC2)c2ccccc12)c1ccc(N2CCOCC2)cc1 [Compound B29] | < 5.00 | < 5.00 | –
O=C(Nc1ccc(Oc2ccnc(N3CCC(O)C3)n2)c2ccccc12)c1cc(F)cc(N2CCCCC2)c1 (centres unmarked) [Compound B393] | 7.77 | 6.15 | –
CC1CCN(c2cc(F)cc(C(=O)Nc3ccc(Oc4ccnc(N5CCOCC5)n4)c4ccccc34)c2)CC1 [Compound B265, 3-Fluoro-5-(4-methylpiperidin-1-yl)-N-{4-[(2-morpholin-4-ylpyrimidin-4-yl)oxy]-1-naphthyl}benzamide] | 5.30 | 6.12 | –
CCN1CCC[C@H]1CNc1nccc(Oc2ccc(NC(=O)c3cc(F)cc(N4CCOCC4)c3)c3ccccc23)n1 [Compound B360] | 7.65 | 7.20 | –
O=C(Nc1ccc(OCCN2CCOCC2)c2ccccc12)c1cccc(-c2cccc(OC(F)(F)F)c2)c1 [Compound B297] | < 5.00 | < 5.00 | –
N#Cc1cccc(-c2cccc(C(=O)Nc3ccc(OCCN4CCOCC4)c4ccccc34)c2)c1 [Compound B110] | < 6.00 | 5.19 | 61
O=C(Nc1ccc(OCCN2CCOCC2)c2ccccc12)c1ccnc(N2CCC(O)CC2)c1 [Compound B43, 4-Hydroxy-3,4,5,6-tetrahydro-2 H-[1,2′]bipyridinyl-4′-carboxylic acid [4-(2-morpholin-4-yl-ethoxy)-naphthalen-1-yl]-amide] | < 5.00 | 5.56 | –
